From patent publication US11840686B2, “Modulation of prekallikrein (PKK) expression” (Ionis Pharmaceuticals, Inc., priority 2013, dated 2023) come the findings set out here.

Strand notation (5' to 3'): a small letter for the sugar, then the base; units joined by * are phosphorothioate-linked, units joined directly phosphodiester-linked; [ ] holds rarer units or linkages, { } end groups; capitals alone tell only the bases. e = 2'-O-(2-methoxyethyl) (MOE); k = constrained ethyl (cEt); [5mC] = 5-methylcytosine; d = 2'-deoxy (DNA)

For this data set, the system named is human PKK mRNA. Nature of the data set: Antisense inhibition of human PKK mRNA in HepaRG cells, 1,000 nM, MOE/deoxy/cEt oligonucleotides (Example 3). Format: cell-based. A digest of the protocol:
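Readout is percent PKK mRNA reduction against untreated controls, by real-time PCR (RTS3454) adjusted for total RNA via RIBOGREEN. Oligonucleotides, phosphorothioate gapmers of 16 nucleosides with cEt, MOE and deoxy sugars, were delivered at 1,000 nM by electroporation to 20,000 HepaRG cells/well for roughly 24 h.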

[1] abbreviates: Table 20, HepaRG cells, electroporation with 1,000 nM antisense oligonucleotide, approximately 24 hours, PKK mRNA by RT-PCR (RTS3454), relative to untreated control cells.
[2] abbreviates: Table 22 experiment, HepaRG cells, electroporation with 1,000 nM antisense oligonucleotide, approx. 24 hours, PKK mRNA by RT-PCR (RTS3454), relative to untreated control cells.
Where [3] appears, read: Table 21 experiment, HepaRG cells, electroporation with 1,000 nM antisense oligonucleotide, approx. 24 hours, PKK mRNA by RT-PCR (RTS3454), relative to untreated control cells.
The mark [4] stands for this setting: Table 19, HepaRG cells, electroporation with 1,000 nM antisense oligonucleotide, approximately 24 hours, PKK mRNA by RT-PCR (RTS3454), relative to untreated control cells.
Where [5] appears, read: HepaRG cells, electroporation with 1,000 nM antisense oligonucleotide, approximately 24 hours, primer probe set RTS3454, relative to untreated control cells, experiment of Table 24.
Where [6] appears, read: HepaRG cells, 1,000 nM antisense oligonucleotide, Table 29.
The mark [7] stands for this setting: HepaRG cells, electroporation with 1,000 nM antisense oligonucleotide, approx. 24 hours, PKK mRNA by RT-PCR (RTS3454), relative to untreated control cells, Table 26 experiment.
[8] abbreviates: HepaRG cells, electroporation with 1,000 nM antisense oligonucleotide, approximately 24 hours, primer probe set RTS3454, relative to untreated control cells, experiment of Table 23.
[9] abbreviates: PKK mRNA, HepaRG cells, 1,000 nM antisense oligonucleotide, Table 31.
[10] abbreviates: Table 27, HepaRG cells, 1,000 nM antisense oligonucleotide, human PKK mRNA.
Where [11] appears, read: HepaRG cells, electroporation with 1,000 nM antisense oligonucleotide, approx. 24 hours, PKK mRNA by RT-PCR (RTS3454), relative to untreated control cells, Table 25 experiment.
The mark [12] stands for this setting: Table 30, human PKK mRNA, HepaRG cells, 1,000 nM antisense oligonucleotide.

“547881 (eA*eT*kT*d[5mC]*dT*dT*d[5mC]*dA*dA*d[5mC]*dA*d[5mC]*dT*kG*k[5mC]*eT; antisense) [compound 547881]”: the “% inhibition” value under setting [1] is recorded as 0% and the “% inhibition” value under setting [2] was determined as 50%.

On to “547801 (eT*eA*k[5mC]*dA*dT*dG*dG*dA*dA*dG*d[5mC]*dT*dA*k[5mC]*kA*eT; antisense) [compound 547801]”, for which, under setting [3], the “% inhibition” value amounted to 11%.

Turning to “548112 (antisense eG*eT*kG*dA*d[5mC]*dT*dG*d[5mC]*dA*dT*d[5mC]*dT*dG*kA*kG*e[5mC]) [compound 548112]”, the “% inhibition” value under setting [4] turned out to be 23%. For “548038 (eT*eA*kA*dT*dG*dT*d[5mC]*dT*dG*dA*d[5mC]*dA*dG*kA*kT*eT; antisense) [compound 548038]”, under setting [5], the “% inhibition” value is listed as 67%. Take “548587 (eT*eT*k[5mC]*dT*dG*dG*dG*dA*dA*dA*d[5mC]*dT*d[5mC]*kT*k[5mC]*eT; antisense) [compound 548587]”: the “% inhibition” value under setting [6] turned out to be 45%.

In the case of “548256 (antisense eG*e[5mC]*kT*d[5mC]*d[5mC]*d[5mC]*d[5mC]*dA*dT*dG*d[5mC]*dA*dT*kA*k[5mC]*eT) [compound 548256]”, the “% inhibition” value under setting [7] is on record as 25%.

Take “548602 (eG*eG*kT*dG*dG*dT*dG*dG*dA*dA*dT*dT*dG*kG*kT*eG; antisense) [compound 548602]”: the “% inhibition” value under setting [6] turned out to be 20%. Consider “548089 (antisense eA*eA*kA*d[5mC]*dT*dA*dA*dG*dG*dG*dA*d[5mC]*d[5mC]*kA*k[5mC]*e[5mC]) [compound 548089]”, for which the “% inhibition” value under setting [4] was determined as 34%. Consider “548277 (antisense eG*eG*kA*dT*dT*dG*dG*dA*d[5mC]*d[5mC]*d[5mC]*dA*dG*kA*k[5mC]*eA) [compound 548277]”, for which, under setting [7], the “% inhibition” value was determined as 57%. Consider “547894 (eG*eG*k[5mC]*dA*dA*dT*dT*dG*dT*dT*d[5mC]*d[5mC]*dG*kG*kT*eA; antisense) [compound 547894]”, for which the “% inhibition” value is 92% under setting [1] and 91% under setting [2].

Regarding “548262 (antisense e[5mC]*e[5mC]*kT*dA*dT*d[5mC]*d[5mC]*dG*dT*dG*dT*dT*d[5mC]*kA*kG*e[5mC]) [compound 548262]”, under setting [7], the “% inhibition” value is reported as 73%. As for “547796 (antisense eA*eT*k[5mC]*d[5mC]*d[5mC]*d[5mC]*dA*d[5mC]*d[5mC]*dT*d[5mC]*dT*dG*kA*kA*eG) [compound 547796]”, the “% inhibition” value under setting [3] is on record as 35%. “548245 (e[5mC]*e[5mC]*kA*dT*dG*d[5mC]*dA*dT*dA*d[5mC]*dT*d[5mC]*dG*k[5mC]*k[5mC]*eT; antisense) [compound 548245]”: the “% inhibition” value under setting [7] stood at 31%. On to “548566 (antisense e[5mC]*eA*k[5mC]*dT*d[5mC]*dA*dG*dA*d[5mC]*dT*dG*dT*d[5mC]*kT*kG*eA) [compound 548566]”, for which the “% inhibition” value under setting [6] stood at 0%. Consider “547928 (eG*eA*kT*dG*dG*dT*d[5mC]*d[5mC]*dG*dA*d[5mC]*dA*d[5mC]*kA*k[5mC]*eA; antisense) [compound 547928]”, for which the “% inhibition” value under setting [8] is 70%. For “548642 (antisense eG*e[5mC]*kG*dG*d[5mC]*dA*dG*dT*dA*dG*dT*dG*dA*kA*kT*e[5mC]) [compound 548642]”, the “% inhibition” value under setting [9] amounted to 23%.

“548324 (eA*e[5mC]*kA*dT*dA*dA*dA*dT*dT*d[5mC]*d[5mC]*d[5mC]*d[5mC]*kA*k[5mC]*eA; antisense) [compound 548324]”: the “% inhibition” value under setting [10] was determined as 29%. Consider “548093 (antisense eT*eT*kT*dG*d[5mC]*dA*dA*dA*d[5mC]*dT*dA*dA*dG*kG*kG*eA) [compound 548093]”, for which, under setting [4], the “% inhibition” value is 0%. Regarding “548636 (antisense e[5mC]*eT*k[5mC]*dT*dA*dT*dA*d[5mC]*dA*dG*d[5mC]*dT*dG*kG*kG*e[5mC]) [compound 548636]”, under setting [9], the “% inhibition” value is on record as 5%. For “547828 (e[5mC]*e[5mC]*kT*dG*dT*dT*d[5mC]*dG*dA*dT*dG*dT*dA*k[5mC]*kT*eT; antisense) [compound 547828]”, under setting [3], the “% inhibition” value amounted to 63%. With “548641 (antisense eG*e[5mC]*kA*dT*d[5mC]*dA*dT*dG*d[5mC]*dT*dT*dA*d[5mC]*kT*kG*e[5mC]) [compound 548641]”, under setting [9], the “% inhibition” value is on record as 23%. On to “547755 (eT*eA*kA*dA*dA*dA*dT*dG*dA*dA*d[5mC]*dG*dG*kT*k[5mC]*eT; antisense) [compound 547755]”, for which the “% inhibition” value under setting [3] amounted to 0%.

As for “548640 (antisense eG*eA*kA*dT*dG*dT*dT*dG*d[5mC]*dT*dG*dT*d[5mC]*k[5mC]*k[5mC]*eA) [compound 548640]”, the “% inhibition” value under setting [9] came out at 32%. In the case of “548083 (eA*eG*kG*dG*dA*d[5mC]*d[5mC]*dA*d[5mC]*d[5mC]*dT*dG*dA*kA*kT*e[5mC]; antisense) [compound 548083]”, the “% inhibition” value under setting [4] is 0%. As for “548352 (antisense eG*eA*kG*dA*dG*dA*dG*dA*dT*dG*dT*dT*d[5mC]*k[5mC]*k[5mC]*eT) [compound 548352]”, the “% inhibition” value under setting [10] is given as 47%. Take “548153 (eT*eG*k[5mC]*dT*dG*dA*dA*dA*dG*d[5mC]*dG*dG*dG*k[5mC]*kT*eT; antisense) [compound 548153]”: under setting [11], the “% inhibition” value turned out to be 44%. Turning to “548281 (antisense eG*eG*kT*dT*dG*dA*dG*dG*dG*dA*d[5mC]*dA*dG*kA*k[5mC]*eA) [compound 548281]”, the “% inhibition” value under setting [7] is recorded as 0%. Turning to “548638 (antisense e[5mC]*e[5mC]*kT*d[5mC]*dA*dT*dT*dG*d[5mC]*dT*d[5mC]*d[5mC]*dA*k[5mC]*kT*eA) [compound 548638]”, the “% inhibition” value under setting [9] came to 26%. As for “547981 (antisense eT*e[5mC]*kT*dT*dT*dG*dT*dG*d[5mC]*dA*dA*dG*dT*k[5mC]*kT*e[5mC]) [compound 547981]”, the “% inhibition” value under setting [8] came to 76%. In the case of “548274 (antisense eT*eA*k[5mC]*d[5mC]*dT*dG*dA*d[5mC]*dA*dA*dG*dT*dG*kG*kT*e[5mC]) [compound 548274]”, the “% inhibition” value under setting [7] was 0%. With “548084 (eA*eA*kG*dG*dG*dA*d[5mC]*d[5mC]*dA*d[5mC]*d[5mC]*dT*dG*kA*kA*eT; antisense) [compound 548084]”, under setting [4], the “% inhibition” value turned out to be 0%. “547890 (eT*eT*kG*dT*dT*d[5mC]*d[5mC]*dG*dG*dT*dA*d[5mC]*dT*k[5mC]*kT*eG; antisense) [compound 547890]”: the “% inhibition” value under setting [1] came out at 97% and the “% inhibition” value under setting [2] was found to be 90%.

As for “548160 (eT*e[5mC]*kG*d[5mC]*dA*dT*dT*dG*dT*d[5mC]*dA*dG*d[5mC]*k[5mC]*k[5mC]*e[5mC]; antisense) [compound 548160]”, the “% inhibition” value under setting [11] worked out at 60%. For the substance “548294 (eG*eT*kG*dT*dG*d[5mC]*dA*d[5mC]*dT*dT*dT*d[5mC]*dT*kG*kG*eT; antisense) [compound 548294]”, the “% inhibition” value under setting [7] worked out at 33%.

In the case of “548062 (eA*eT*kA*dA*dA*dT*dT*dG*dT*dG*d[5mC]*dT*dT*kG*kT*eG; antisense) [compound 548062]”, the “% inhibition” value under setting [5] came to 19%.

With “548391 (eG*eT*kA*d[5mC]*dA*dT*dG*dA*d[5mC]*dT*d[5mC]*d[5mC]*dA*kG*kT*eG; antisense) [compound 548391]”, under setting [12], the “% inhibition” value is 34%. For “547804 (eG*eT*kG*dT*dA*d[5mC]*dA*dT*dG*dG*dA*dA*dG*k[5mC]*kT*eA; antisense) [compound 547804]”, the “% inhibition” value under setting [3] stood at 22%. As for “548426 (antisense eT*eA*kT*dA*dA*d[5mC]*dA*dG*dT*dA*dT*d[5mC]*dA*k[5mC]*kT*eG) [compound 548426]”, the “% inhibition” value under setting [12] is reported as 14%. On to “548440 (antisense e[5mC]*e[5mC]*kT*dA*dT*dA*dA*d[5mC]*dA*dG*dT*dA*dT*k[5mC]*kA*e[5mC]) [compound 548440]”, for which the “% inhibition” value under setting [12] is 32%. As to “548291 (e[5mC]*e[5mC]*kT*dG*dT*dT*dA*dG*dA*dG*dT*dT*dG*kG*k[5mC]*e[5mC]; antisense) [compound 548291]”, the “% inhibition” value under setting [7] stood at 35%. With “547902 (eA*e[5mC]*kT*dG*dT*dA*d[5mC]*dT*dT*dT*dA*dA*dT*kA*kG*eG; antisense) [compound 547902]”, the “% inhibition” value stood at 20% under setting [1] and 33% under setting [2].

As for “548439 (antisense e[5mC]*e[5mC]*kT*dA*dT*dA*dT*d[5mC]*dA*d[5mC]*dT*dG*dT*kA*k[5mC]*e[5mC]) [compound 548439]”, under setting [12], the “% inhibition” value stood at 46%. Turning to “548162 (e[5mC]*e[5mC]*kT*d[5mC]*dG*d[5mC]*dA*dT*dT*dG*dT*d[5mC]*dA*kG*k[5mC]*e[5mC]; antisense) [compound 548162]”, under setting [11], the “% inhibition” value worked out at 25%. On to “548378 (eG*e[5mC]*kA*dA*dG*dA*dT*dG*d[5mC]*dA*dT*dG*d[5mC]*kA*kG*e[5mC]; antisense) [compound 548378]”, for which the “% inhibition” value under setting [10] is on record as 49%.

A word on the % inhibition: it is how much of the control response was suppressed. A higher % inhibition goes with a response far below the control.
